Results taken from patent publication US10626349B2, “Cleavable surfactants” (PROMEGA CORPORATION, priority 2007, dated 2020).

Tests used:
[1] = Solubility of the surfactant
[2] = molecular target: T1, Bacteriorhodopsin digested with chymotrypsin (Halobacterium salinarum, UniProt P02945); test: Bacteriorhodopsin/Chymotrypsin digest, HPLC peak area versus RapiGest control; type: biochemical; conditions: 0.025% surfactant
T1 sequence (P02945 14-261 limits assumed): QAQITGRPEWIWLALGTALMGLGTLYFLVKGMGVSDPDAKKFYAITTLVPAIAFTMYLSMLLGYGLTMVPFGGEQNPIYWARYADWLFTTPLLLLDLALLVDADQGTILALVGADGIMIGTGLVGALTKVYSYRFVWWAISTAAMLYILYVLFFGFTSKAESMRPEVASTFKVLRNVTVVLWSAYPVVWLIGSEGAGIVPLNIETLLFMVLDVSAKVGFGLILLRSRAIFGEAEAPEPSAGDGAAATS
Procedure: Bacteriorhodopsin (25 μs) was heated with 0.025% Rapigest™ surfactant or the indicated compound of the invention for 5 minutes at 95° C., then digested with chymotrypsin (Sigma) at a 10:1 ratio in 125 μL 50 mM Ammonium bicarbonate for 1 hour at 37° C. After one hour TFA was added to 0.5-2% and the mixtures were incubated at 37° C. or 65° C. for 20 or 30 minutes. Degraded surfactant was removed by centrifugation at 14,000×g for 5 minutes. An aliquot of 50-100 μL of digested protein was analyzed by HPLC as described above.
Compound 3211, 3212, 3224 and Rapigest™ surfactant control for FIG. 13C reactions: Bacteriorhodopsin (25 μs) was solubilized with 0.025% compound of interest for 1-2 minutes at room temperature, then digested with chymotrypsin (Sigma) at a 10:1 ratio in 125 μL 50 mM Ammonium bicarbonate for 1 hour at 37° C. After one hour TFA was added to 0.5-2% and the mixtures were incubated at 37° C. or 65° C. for 20 or 30 minutes. Degraded surfactant was removed by centrifugation at 14,000×g for 5 minutes. An aliquot of 50-100 μL of digested protein was analyzed by HPLC as described above.
(§1) For each compound numbered below in Example 12, the rate of enhanced digestion was determined from the ratio of the surfactant peak area (surfactant # Pk. Area) to the Rapigest™ surfactant peak area (RG Pk area). Peak area was determined as the sum of all peaks integrated from 8-22 minutes.

[3] = molecular target: T2, Myoglobin from horse heart digested with trypsin (Equus caballus, UniProt P68082); test: Myoglobin/Trypsin digest, HPLC peak area versus RapiGest control; type: biochemical; conditions: 0.01% surfactant, trypsin 50:1, 20 minutes at 37° C.; ratio to RapiGest control, >1 = more digestion
T2 construct: Myoglobin from horse heart; from tissue; host or cells: horse heart
Procedure: Myoglobin from horse heart (typically 25 μs) was digested with trypsin (Promega) at a 50:1 ratio in a volume of 125 μL (typical) of 50 mM Ammonium bicarbonate for 20 minutes at 37° C. with 0.01% RapiGest™ surfactant or 0.01% of the indicated compound of the invention (upper and lower chromatograms, respectively). TFA was added to 0.5-2% and the mixtures were incubated at 37° C. or 65° C. for 20 or 30 minutes. Degraded surfactant was removed by centrifugation at 14,000×g for 5 minutes. HPLC analysis was performed on a 25-50 μL reaction sample using an HP1050 LC system with an Agilent Sorbax SB-C18 column (3.0×100 mm, 3.5 micron) and a gradient of 0.1% TFA (97.5% initial) and Acetonitrile, 0.01% TFA (55% final condition followed by a 100% wash step) and a flow rate of 0.75 mL/min. Peptides were detected at 214 and 280 nm.
as §1

[4] = Acid and thermal degradation of the surfactant; conditions: for degradation after overnight incubation (in words): concentration not given; for thermolability (in words): 3266: 5 minutes at 95° C.; for acid-lability (in words): 0.5% TFA at 37° C. where stated (3237: 30 minutes), 3271 by TLC analysis
[5] = Hydrolytic stability in 50 mM ammonium bicarbonate (reverse-phase HPLC); type: physicochemical
Procedure: Hydrolytic stability was measured by monitoring the change in retention time of the intact surfactant by reverse-phase HPLC. The ½-life is defined as the time required to reach 50% degradation.

[6] = BR heated (boiled) with surfactant 5 minutes at 95° C., chymotrypsin 10:1, 1 hour at 37° C., ratio to RapiGest control
[7] = surfactant conc. 0.0025% in 50 mM ammonium bicarbonate
[8] = surfactant conc. 0.025% in 50 mM ammonium bicarbonate

T2 sequence (P68082 2-154 limits assumed): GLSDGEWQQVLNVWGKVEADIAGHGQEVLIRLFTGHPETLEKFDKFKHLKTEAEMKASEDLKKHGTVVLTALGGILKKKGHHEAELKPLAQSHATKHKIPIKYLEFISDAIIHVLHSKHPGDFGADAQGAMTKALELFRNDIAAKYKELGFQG

SMILES	solubility in aqueous solutions (concentration dissolved to) ([1]; aqueous solution)	surfactant Pk area/RG Pk area, Bacteriorhodopsin/Chymotrypsin digest [2, 6]	surfactant Pk area/RG Pk area, Myoglobin/Trypsin digest [3]	also measured
CCCCCCCCCCCC(C)(C)OC(=O)Nc1ccc(N(CCCCS(=O)(=O)[O-])CCCCS(=O)(=O)O)cc1.[Na+] [Compound 3194]	0.5%	1.1	0.72	degradation after overnight incubation (in words) [4]: No degradation was observed even after overnight incubation
CCCCCCCCCCC(OC(=O)NCCCS(=O)(=O)O)c1ccc(C(F)(F)F)cc1 (centres unmarked) [Compound 3200]	~0.01%	0.8	0.7	degradation after overnight incubation (in words) [4]: No degradation was observed even after overnight incubation
CCCCCCOc1ccc(C(OCCCS(=O)(=O)[O-])(c2ccccc2)c2ccccc2)cc1.[Na+] [Compound 3202]	~0.01%	0.6	1.1	time to degradation of 0.01% solution ([4]; 0.01% solution, 37° C. where stated): ≤ 30 min
CCCCCCCC(C)(C)OC(=O)NCC(O)CS(=O)(=O)O (centres unmarked) [Compound 3204]	0.5%	0.55	0.87	degradation rate (grade in words) [4]: moderate
CCCCCCCCCOCC(C)(C)OC(=O)NCCCS(=O)(=O)O [Compound 3205]	0.5%	0.45	0.3	degradation after overnight incubation (in words) [4]: No degradation was observed even after overnight incubation
CCCCCCCCCSCC(C)(C)OC(=O)NCCCS(=O)(=O)O [Compound 3206]	0.5%	0.8	0.26	degradation rate (grade in words) [4]: moderate
CCCCCCCCCCCCCCC(OC(=O)NCCCS(=O)(=O)[O-])c1ccc(OC)cc1.[Na+] (centres unmarked) [Compound 3213]	0.025%	1.3	0.8	½-life [5, 7]: 62 h; ½-life [5, 8]: 128 h
CCCCCCCCCCOc1ccc(C(OCCN(CCCCS(=O)(=O)[O-])CCCCS(=O)(=O)[O-])(c2ccccc2)c2ccccc2)cc1.[Na+].[Na+] [Compound 3215]	1%	1.2	0.56	time to degradation in 0.5% TFA ([4]; 0.1% solution): 1 h; thermolability (in words) [4]: moderate thermolability
CCCCCCCCCCOc1ccc(C(OCCN(CCCCS(=O)(=O)[O-])CCCCS(=O)(=O)[O-])(c2ccccc2)c2ccc(OC)cc2)cc1.[Na+].[Na+] (centres unmarked) [Compound 3220]	1%	0.8	0.2	time to degradation in 0.5% TFA ([4]; 37° C. where stated, 0.1% solution for 3220 and 3266): ≤ 0.25 h; thermolability (in words) [4]: moderate thermolability
CCCCCCCCCCCCC(OC(=O)NCCCS(=O)(=O)O)c1ccco1 (centres unmarked) [Compound 3224]	0.25%		1.3	½-life [5, 7]: 1.3 h; ½-life [5, 8]: 8.3 h; ½-life ([5]; surfactant conc. 0.10% in 50 mM ammonium bicarbonate): 23 h; ½-life ([5]; surfactant conc. 0.25% in 50 mM ammonium bicarbonate): 22 h; solubility after adding ACN ([1]; ACN added to 20%): 2%; surfactant Pk area/RG Pk area, Bacteriorhodopsin/Chymotrypsin digest ([2]; BR solubilized at room temperature (not boiled), RapiGest control boiled): 0.74
CCCCCCCCCCC1COC(c2cc(OCCCS(=O)(=O)[O-])ccc2[N+](=O)[O-])O1.[Na+] (centres unmarked) [Compound 3225]		0.9	1.1	solubilized in DMSO to ([1]; 100% DMSO): 10%; solubility in aqueous solutions (in words) ([1]; aqueous solution): Not soluble in aqueous solutions; acid-lability (in words) [4]: slowly degrades in 0.5% TFA at 37 °C; thermolability (in words) [4]: No thermolability was observed
CCCCCCCCCCC1COC(c2cccc(OCCCS(=O)(=O)[O-])c2)O1.[Na+] (centres unmarked) [Compound 3228]	1%	1.2	1.4	degradation rate (grade in words) [4]: low
CCCCCCCCCCC(OC(=O)NCCCS(=O)(=O)O)c1cc(OC)cc(OC)c1 (centres unmarked) [Compound 3236]	1%	0.71	1.4	degradation by acid (0.5% TFA) or by heat (boiling), in words ([4]; 3236: 0.1% solution in 0.5% TFA 30 minutes at 37° C. or 5 minutes of boiling without TFA): no degradation was observed
CCCCCCCCCCC(OC(=O)NCCCS(=O)(=O)O)c1ccccc1OC (centres unmarked) [Compound 3237]	0.5%	1	1.4	acid-lability (in words) [4]: Moderate degradation was observed
